What was measured:
Type in all cases: cell-based
[1] = system: HTT mRNA alternative junction (AJ); test: RT-qPCR splicing assay, HTT alternative junction (AJ) mRNA increase; details: A673 or K562 cell line, 24 hours treatment; concentration having 50% response in AJ mRNA increase
Method: (§1) Compounds described herein were used to modulate RNA transcript abundance in cells. The expression of a target mRNA was measured by detecting the formation of an exon-exon junction in the canonical transcript (CJ). A compound mediated exon-inclusion event was detected by observing an increase in formation of a new junction with an alternative exon (AJ). Real-time qPCR assays were used to detect these splicing switches and interrogate the potency of various compounds towards different target genes. A high-throughput real time quantitative PCR (RT-qPCR) assay was developed to measure these two isoforms of the mRNA (CJ and AJ) for an exemplary gene, HTT, together with a control housekeeping gene, GAPDH or GUSB or PPIA, used for normalization. Briefly, the A673 or K562 cell line was treated with various compounds described herein (e.g., compounds of Formula (I)). After treatment, the levels of the HTT mRNA targets were determined from each sample of cell lysate by cDNA synthesis followed by qPCR.
(§2) The A673 cell line was cultured in DMEM with 10% FBS. Cells were diluted with full growth media and plated in a 96-well plate (15,000 cells in 100 ul media per well). The plate was incubated at 37° C. with 5% CO2 for 24 hours to allow cells to adhere. An 11-point 3-fold serial dilution of the compounds was made in DMSO then diluted in media in an intermediate plate. Compounds were transferred from the intermediate plate to the cell plate with the top dose at a final concentration of 10 uM in the well. Final DMSO concentration was kept at or below 0.25%. The cell plate was returned to the incubator at 37° C. with 5% CO2 for an additional 24 hours.
(§3) The K562 cell line was cultured in IMDM with 10% FBS. For K562, cells were diluted with full growth media and plated in either a 96-well plate (50,000 cells in 50 uL media per well) or a 384-well plate (8,000-40,000 cells in 45 uL media per well). An 11-point 3-fold serial dilution of the compounds were made in DMSO then diluted in media in an intermediate plate. Compound was transferred from the intermediate plate to the cell plate with the top dose at a final concentration of 10 uM in the well. Final DMSO concentration was kept at or below 0.25%. Final volume was 100 uL for 96-well plate and 50 uL for 384-well plate. The cell plate was then placed in an incubator at 37° C. with 5% CO2 for 24 hours.
(§4) The cells were then gently washed with 50 uL-100 uL cold PBS before proceeding to addition of lysis buffer. 30 uL-50 uL of room temperature lysis buffer with DNAse I (and optionally RNAsin) was added to each well. Cells were shaken/mixed thoroughly at room temperature for 5-10 minutes for lysis to take place and then 3 uL-5 uL of room temperature stop solution was added and wells were shaken/mixed again. After 2-5 minutes, the cell lysate plate was transferred to ice for RT-qPCR reaction setup. The lysates could also be frozen at −80° C. for later use.
(§5) In some cases, a direct lysis buffer was used. An appropriate volume of 3×lysis buffer (10 mM Tris, 150 mM NaCl, 1.5%-2.5% Igepal and 0.1-1 U/uL RNAsin, pH 7.4) was directly added to either K562 or A673 cells in media and mixed by pipetting 3 times. The plates were then incubated at room temperature with shaking/rocking for 20-50 minutes to allow for lysis to take place. After this time, the cell lysate plate was transferred to ice to set up for the RT-qPCR reactions. The lysates could also be frozen at −80° C. for later use.
(§6) To set up 10 uL RT-qPCR reactions, cell lysates were transferred to 384-well qPCR plates containing the master mix according to the table below. The plates were sealed, gently vortexed, and spun down before the run. The volumes were adjusted accordingly in some instances where the reaction was carried in 20 uL. The table below summarizes the components of the RT-qPCR reactions:
(§7) The RT-qPCR reaction was performed using a QuantStudio (ThermoFisher) under the following fast cycling conditions. […]

[2] = system: HTT mRNA canonical junction (CJ); test: RT-qPCR splicing assay, HTT canonical junction (CJ) mRNA decrease; details: A673 or K562 cell line, 24 hours treatment; concentration having 50% response in CJ mRNA decrease
Method: as §1, §2, §3, §4, §5, §6, §7

[3] = system: Target C CJ mRNA; test: Gene panel canonical junction qPCR assay, Target C; details: larger gene panel; concentration having 50% response in CJ decrease; read-out: Target C IC50 (decrease in CJ mRNA levels)
Method: as §1
(§8) The data analysis was performed by first determining the ΔCt vs the housekeeper gene. This ΔCt was then normalized against the DMSO control (ΔΔCt) and converted to RQ (relative quantification) using the 2^(−ΔΔCt) equation. The RQ were then converted to a percentage response by arbitrarily setting an assay window of 3.5 ΔCt for HTT-CJ and an assay window of 9 ΔCt for HTT-AJ. […] The percentage response was then fitted to the 4 parametric logistic equation to evaluate the concentration dependence of compound treatment. The increase in AJ mRNA is reported as AC50 (compound concentration having 50% response in AJ increase) while the decrease in CJ mRNA levels is reported as IC50 (compound concentration having 50% response in CJ decrease).
(§9) Additional studies were carried out for a larger panel of genes using the protocol provided above. The junction between flanking upstream and downstream exons was used to design canonical junction qPCR assays. At least one of the forward primer, reverse primer or the CY5-labeled 5′ nuclease probe (with 3′ quencher such as ZEN/Iowa Black FQ) was designed to overlap with the exon junction to capture the CJ mRNA transcript. BLAST was used to confirm the specificity of the probeset and parameters such as melting temperature, GC content, amplicon size, and primer dimer formation are considered during their design. Data for the decrease in CJ mRNA levels for three exemplary genes (HTT, SMN2, and Target C) analyzed in this panel are reported as IC50 (compound concentration having 50% response in CJ decrease).

[4] = system: HTT CJ mRNA; test: Gene panel canonical junction qPCR assay, HTT; details: larger gene panel; concentration having 50% response in CJ decrease; read-out: HTT IC50 (decrease in CJ mRNA levels)
Method: as §1, §8, §9

[5] = system: SMN2 CJ mRNA; test: Gene panel canonical junction qPCR assay, SMN2; details: larger gene panel; concentration having 50% response in CJ decrease; read-out: SMN2 IC50 (decrease in CJ mRNA levels)
Method: as §1, §8, §9

Structure (SMILES)	AC50 [1] [µM]	AC50 [2] [µM]	IC50 [3] [µM]	IC50 [4] [µM]	IC50 [5] [µM]
Cc1cn2cc(-c3cccc4c(N5CCCCC5)nncc34)nc2c(C)n1 [Compound 108, 5-[6,8-dimethylimidazo[1,2-a]pyrazin-2-yl]-1-(piperidin-1-yl)phthalazine]	> 10	> 10	1 to 10		
COc1cc(N2CCNCC2)c2cccc(-c3cc(F)c4nc(C)cn4c3)c2n1 [Compound 138, 8-[8-fluoro-2-methylimidazo[1,2-a]pyridin-6-yl]-2-methoxy-4-(piperazin-1-yl) quinoline]	> 10	> 10	> 10	> 10	0.1 to 1
Cc1cn2cc(NC(=O)c3cccc4c(N(C)C5CCN(C)CC5)cnnc34)cc(F)c2n1 [Compound 213]	1 to 10	1 to 10	1 to 10	1 to 10	1 to 10
Cc1cn2nc(-c3cccc4c(C5CCNCC5)nncc34)cc(C)c2n1 [Compound 104, 5-[2,8-dimethylimidazo[1,2-b]pyridazin-6-yl]-1-(piperidin-4-yl)phthalazine]	> 10				
Cc1cn2cc(NC(=O)c3cccc4c(N5CCC(NC(C)(C)C)C5)cnnc34)cc(F)c2n1 (stereo not shown) [Compound 122, 4-[3-(tert-butylamino)pyrrolidin-1-yl]-N-[8-fluoro-2-methylimidazo[1,2-a]pyridin-6-yl]cinnoline-8-carboxamide]	> 10	> 10			
Cc1cn2cc(NC(=O)c3cccc4c(N(C)C5CC(C)(C)NC(C)(C)C5)cnnc34)cc(F)c2n1 [Compound 184, N-[8-fluoro-2-methylimidazo[1,2-a]pyridin-6-yl]-4-[methyl(2,2,6,6-tetramethylpiperidin-4-yl)amino]cinnoline-8-carboxamide]	1 to 10	1 to 10	1 to 10	1 to 10	1 to 10
Cc1cn2cc(NC(=O)c3cccc4c(C5CCNCC5)cnnc34)cc(F)c2n1 [Compound 114, N-[8-fluoro-2-methylimidazo[1,2-a]pyridin-6-yl]-4-(piperidin-4-yl)cinnoline-8-carboxamide]	> 10	> 10			
Cc1cn2nc(NC(=O)c3cccc4c(C5CCNCC5)cnnc34)cc(C)c2n1 [Compound 112, N-[2,8-dimethylimidazo[1,2-b]pyridazin-6-yl]-4-(piperidin-4-yl)cinnoline-8-carboxamide]	> 10	> 10	1 to 10		
Cc1cn2cc(-c3cccc4c(C5=CCNCC5)nncc34)nc2c(C)n1 [Compound 109, 5-[6,8-dimethylimidazo[1,2-a]pyrazin-2-yl]-1-(1,2,3,6-tetrahydropyridin-4-yl)phthalazine]	> 10	> 10	1 to 10		
Cc1cn2nc(-c3cccc4c(N5CCNCC5)nncc34)cc(C)c2n1 [Compound 101, 5-[2,8-dimethylimidazo[1,2-b]pyridazin-6-yl]-1-(piperazin-1-yl)phthalazine]	1 to 10	> 10	1 to 10		
c1cc(-c2cn[nH]c2)c2cnnc(N3CCNCC3)c2c1 [Compound 102, 1-(piperazin-1-yl)-5-(1H-pyrazol-4-yl)phthalazine]	> 10	> 10		> 10	> 10
Cc1cn2nc(-c3cccc4c3CCC(=O)N4C3CCNCC3)cc(C)c2n1 [Compound 185]	> 10	1 to 10		1 to 10	> 10
Cc1cn2cc(-c3cccc4c(N5CCNCC5)nncc34)nc2c(C)n1 [Compound 100, 5-[6,8-dimethylimidazo[1,2-a]pyrazin-2-yl]-1-(piperazin-1-yl)phthalazine]	> 10	> 10			
Cc1cn2nc(NC(=O)c3cccc4c(N5CCNCC5)cnnc34)cc(C)c2n1 [Compound 111, N-[2,8-dimethylimidazo[1,2-b]pyridazin-6-yl]-4-(piperazin-1-yl)cinnoline-8-carboxamide]	> 10	> 10			
COc1cc(N2CCNCC2)c2cccc(-c3cc(C)c4nc(C)cn4n3)c2n1 [Compound 134, 8-[2,8-dimethylimidazo[1,2-b]pyridazin-6-yl]-2-methoxy-4-(piperazin-1-yl) quinoline]	1 to 10	1 to 10	1 to 10		
Cc1cn2cc(NC(=O)c3cccc4c(N5CCNCC5)cnnc34)cc(F)c2n1 [Compound 113, N-[8-fluoro-2-methylimidazo[1,2-a]pyridin-6-yl]-4-(piperazin-1-yl)cinnoline-8-carboxamide]	1 to 10	> 10	< 0.1	> 10	< 0.1
